In patent publication US20100119483A1, “PEPTIDE VIRAL ENTRY INHIBITORS” (Schering Corporation, priority 2004, published 2010):
Where “and” joins values, the source holds several entries; their conditions need not be identical. Equal values may be shown once. Ends that are not written are not given here.

Columns and labels:
[1] = system: amphotropic murine leukemia virus; experiment: AMLV pseudotyped virus entry counter-screen, same infection protocol; assay type: cell-based; conditions: for AMLVpp % inh: peptide library screen, cell entry inhibition vs uninhibited control; for luciferase units, AMLV entry: duplicates, listed as scrambled SEQ ID NO: 106
In short: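 Huh7 hepatoma cells pre-incubated with peptide 1 h at 37 °C, then infected with AMLV pseudotyped virus and cultured 72 h at 37 °C, 5% CO2 before luciferase read-out. Peptides screened at 100 ug/ml, then 10-point 3-fold titrations from 100 ug/ml.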

[2] = system: HCV pseudoparticles; experiment: HCV pseudoparticle (HCVpp) entry assay in Huh7 hepatoma cells, luciferase readout; assay type: cell-based, hepatitis C virus; conditions: for HCVpp % inh: peptide library screen, first screened at 100 ug/ml, cell entry inhibition vs uninhibited control; for luciferase units, HCV entry: duplicates, listed as scrambled SEQ ID NO: 138
In short: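 Huh7 cells were pre-treated with peptide for 1 h at 37 °C before exposure to HCV E1/E2-pseudotyped HIV luciferase particles made in 293T cells, followed by 72 h culture and luciferase readout. Peptides were tested at 10 points, 3-fold, from 100 ug/ml; particles lacking envelope served as non-specific entry control.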

Substance | AMLVpp % inh [1] | HCVpp % inh [2] | further results
V-H-K-F-N-S-S-G-C-P-E-R-M-A-S-C [SEQ ID NO: 39] | −15% | −11% | –
R-I-P-Q-A-V-V-D-M-V-A-G-A-H-W-G [SEQ ID NO: 24] | −2% | 25% | –
LKLFEVYLILWLA (HCV peptide) [SEQ ID NO: 138, scrambled 13-mer] | – | – | luciferase units, AMLV entry ([1]; 0.04115226 uM of peptide): 43854 luciferase units and 39721 luciferase units and 46556 luciferase units and 44480 luciferase units and 40734 luciferase units and 47413 luciferase units; luciferase units, AMLV entry ([1]; 0.1234568 uM of peptide): 39298 luciferase units and 28711 luciferase units and 46132 luciferase units and 49974 luciferase units and 42958 luciferase units and 51726 luciferase units; luciferase units, AMLV entry ([1]; 0.3703704 uM of peptide): 48158 luciferase units and 45212 luciferase units and 49139 luciferase units and 49219 luciferase units and 51358 luciferase units and 50551 luciferase units; luciferase units, AMLV entry ([1]; 1.111111 uM of peptide): 49084 luciferase units and 39443 luciferase units and 53349 luciferase units and 51341 luciferase units and 46069 luciferase units and 46019 luciferase units; luciferase units, AMLV entry ([1]; 3.333333 uM of peptide): 50674 luciferase units and 41738 luciferase units and 60859 luciferase units and 50020 luciferase units and 51236 luciferase units and 49388 luciferase units; luciferase units, AMLV entry ([1]; 30 uM of peptide): 87785 luciferase units and 60410 luciferase units and 83010 luciferase units and 77083 luciferase units and 85612 luciferase units and 79287 luciferase units; luciferase units, HCV entry ([2]; 0.04115226 uM of peptide): 12287 luciferase units and 13159 luciferase units and 13838 luciferase units and 13589 luciferase units and 10645 luciferase units and 10230 luciferase units; luciferase units, HCV entry ([2]; 0.1234568 uM of peptide): 9257 luciferase units and 8961 luciferase units and 11382 luciferase units and 10746 luciferase units and 7229 luciferase units and 6598 luciferase units; luciferase units, HCV entry ([2]; 0.3703704 uM of peptide): 7620 luciferase units and 8597 luciferase units and 9180 luciferase units and 5716 luciferase units and 8494 luciferase units and 8291 luciferase units; luciferase units, HCV entry ([2]; 1.111111 uM of peptide): 6456 luciferase units and 7681 luciferase units and 9683 luciferase units and 9482 luciferase units and 9053 luciferase units and 7359 luciferase units; luciferase units, HCV entry ([2]; 3.333333 uM of peptide): 7729 luciferase units and 11535 luciferase units and 12632 luciferase units and 8653 luciferase units and 8028 luciferase units and 10288 luciferase units; luciferase units, HCV entry ([2]; 30 uM of peptide): 7047 luciferase units and 5340 luciferase units and 7406 luciferase units and 5158 luciferase units and 5107 luciferase units and 5826 luciferase units; activity compared to the wild type 13-mer peptide ([2]; HCVpp entry inhibition, in words): still showed some activity, though weakened
Y-G-I-G-S-A-V-V-S-F-A-I-K-W-E-Y [SEQ ID NO: 76] | 24% | 7% | –
V-M-L-L-F-A-G-V-D-G-G-T-Y-V-T-G [SEQ ID NO: 29] | 11% | −22% | –
V-P-C-V-R-E-N-N-S-S-R-C-W-V-A-L [SEQ ID NO: 8] | 14% | −22% | –
L-V-V-S-Q-L-L-R-I-P-Q-A-V-V-D-M [SEQ ID NO: 23] | −1% | 3% | –
G-S-G-P-W-L-T-P-R-C-L-V-H-Y-P-Y (GSGPWLTPRCLVHYPY; HCV peptide) [SEQ ID NO: 61] | −8% | −15% | –
R-H-E-T-V-Q-D-C-N-C-S-I-Y-P-G-H [SEQ ID NO: 18] | 17% | 5% | –
N-R-T-A-L-N-C-N-D-S-L-N-T-G-F-L (NRTALNCNDSLNTGFL; not fully specified (C-terminus); printed as N-R-T-A-L-N-C-N-D-S-L-N-T-G-F-L) [SEQ ID NO: 36] | 18% | 23% | –
S-S-D-Q-R-P-Y-C-W-H-Y-A-P-R-P-C [SEQ ID NO: 44] | 15% | 14% | –
A-L-T-P-T-L-A-A-R-N-A-S-V-P-T-T [SEQ ID NO: 10] | 1% | 53% | –
N-W-A-K-V-L-I-V-M-L-L-F-A-G-V-D [SEQ ID NO: 28] | −1% | 13% | –
V-G-G-V-E-H-R-L-E-A-A-C-N-W-T-R (VGGVEHRLEAACNWTR; HCV peptide) [SEQ ID NO: 66] | 34% | 22% | –
G-H-V-T-G-H-R-M-A-W-D-M-M-M-N-W [SEQ ID NO: 20] | 6% | 43% | –
C-W-H-Y-A-P-R-P-C-G-I-V-P-A-A-Q [SEQ ID NO: 45] | −8% | 63% | –
